Values after ≈ are worked out from the molar mass of the structure shown. Read-outs that look alike come from different tables or passages of the source.
Assays:
H. influenzae [1] = conditions: cited from earlier work
H. influenzae [2] = test: Study 95-001 otitis media caused by H. influenzae; type: in vivo, human; conditions: single intramuscular dose 50 mg/kg; 9 patients; follow-up
Procedure: Specimens for culture and susceptibility testing were obtained from the infected ear by tympanocentesis within 24 h of start of therapy. […] However, the study was evaluated using the breakpoints in the most recent set of guidelines.
To be a bacteriological cure, the MITT subject had to have a positive culture from the middle ear for S. pneumoniae, H influenzae, or M. catarrhalis. Eradication was defined as presumed eradication of pretreatment pathogen(s) based on signs/symptoms or unavailability of culturable material. All evaluable patients had only one of the bacterial species present at baseline. There was no bacteriological response data collected for 95–001. However, the clinical outcome by bacterial pathogen at follow-up (approximately 28 days after first visit) was collected. For patients with S. pneumoniae as the baseline pathogen, all treatment arms yielded 100% clinical cure when the investigators' evaluations that were missing are not included in the analysis. […] The comparator drug, ceftriaxone, had no failures out of 9 patients.

[3] = test system: Streptococcus pneumoniae 02J1016; test: Murine lung (pulmonary/pneumonia) infection model challenged with Streptococcus pneumoniae; type: in vivo, mouse
[4] = test system: Streptococcus pneumoniae 02J1016; test: Murine peritonitis model, Streptococcus pneumoniae; type: in vivo, mouse; conditions: oral QD
[5] = test system: Haemophilus influenzae 54A1100; test: Murine acute infection (peritonitis) model challenged with Haemophilus influenzae; type: in vivo, mouse; conditions: for Mice Surviving/Total: Q.D. [1 day]
S. pyogenes 02C0203 = test: MIC determination, S. pyogenes; type: cell-based, Streptococcus pyogenes; conditions: listed as Clanthromycin
Procedure: (§1) MIC Determinations. Streptococcus pneumoniae, S. pyogenes, E. faecalis, and H. influenzae MICs were determined using the broth microdilution procedure recommended by the NCCLS. Test trays were incubated at 35C without carbon dioxide. For testing of streptococci, the cation-adjusted Mueller-Hinton broth was supplemented with 2–3% lysed horse blood. For testing H. influenzae, freshly prepared Haemophilus Test Medium broth was used.
(§2) Bacterial Strains. • S. pneumoniae 02J1016, serotype 3, originally isolated from blood culture (strain P 4241) (MLS- and penicillin-susceptible). • S. pyogenes 02C0203, ATCC 12384, group A, type 3 (MLS-susceptible). • E. faecalis 03A1085, vancomycin susceptible clinically derived strain. • H. influenzae 54A1100, (43095 ATCC Fulghum strain) non-serotype B strain originally isolated from otitis media (macrolide and penicillin susceptible). • H. influenzae 54A1218, clinically derived non-serotype B strain (macrolide-susceptible, penicillin-resistant, TEM-1 beta-lactamase).

[6] = test system: Haemophilus influenzae 54A1100; test: Gerbil middle ear (otitis media) infection model, ED50, H. influenzae 54A1100; type: in vivo; conditions: oral QD; gerbil otitis media model
[7] = test system: Streptococcus pyogenes 02C0203; test: Murine acute infection (peritonitis) model challenged with Streptococcus pyogenes; type: in vivo, mouse
H. influenzae 54A1100 = test: MIC determination, H. influenzae 54A1100; type: cell-based, Haemophilus influenzae; conditions: H. influenzae 54A1100
Procedure: as §1, §2

S. pneumoniae isolates = test: Susceptibility (MIC) testing of trial S. pneumoniae isolates with PCR of resistance mechanism; type: cell-based, Streptococcus pneumoniae; conditions: for MIC: Streptococcus pneumoniae
Excerpt: Samples of middle ear fluid were split for storage at a central laboratory and cultured locally. All pathogens isolated locally were subcultured and sent to a central laboratory for confirmation and susceptibility testing, performed by Kirby-Bauer disk-diffusion or MIC testing according to NCCLS standards.
Polymerase chain reaction (PCR) determination of resistance mechanisms in all the azithromycin-resistant pneumococci was done.
Cultures were taken for antimicrobial susceptibility testing and bacterial species were identified. Current NCCLS approved breakpoints for MICs and zone sizes were applied to all data irrespective of the breakpoint in use at the time of the study. The isolates from the clinical studies were sent to central laboratories for identification and susceptibility determination. The methods for agar diffusion disk tests are those recommended by NCCLS.
The susceptibility breakpoints for azithromycin were defined as follows: […]

[8] = 1.56 mg/kg/day P.O., 2 day regimen
[9] = 3.12 mg/kg/day P.O., 1 day regimen
[10] = 6.25 mg/kg/day P.O., 2 day regimen
[11] = 25.0 mg/kg/day P.O., 2 day regimen
[12] = 50.0 mg/kg/day P.O., 1 day regimen
[13] = oral QD, murine pneumonia model
[14] = oral QD, murine peritonitis model

In the case of `CC=CC1=C(C(=O)O)N2C(=O)[C@@H](NC(=O)[C@H](N)c3ccc(O)cc3)[C@H]2SC1` [Cefprozil], the “success rate less than control (amoxicillin/clavulanic acid); presumptive bacterial/clinical cure outcomes (i.e., clinical success) at 10–16 days post-therapy” value (H. influenzae [1]) is listed as 17% less than control (amoxicillin/clavulanic.

With `CO/N=C(\C(=O)N[C@@H]1C(=O)N2C(C(=O)O)=C(CSc3nc(=O)c(=O)[nH]n3C)CS[C@H]12)c1csc(N)n1` [Ceftriaxone] the failures (H. influenzae [2]) was “no failures”.

For `CC[C@H]1OC(=O)[C@H](C)[C@@H](O[C@H]2C[C@@](C)(OC)[C@@H](O)[C@H](C)O2)[C@H](C)[C@@H](O[C@@H]2O[C@H](C)C[C@H](N(C)C)[C@H]2O)[C@](C)(OC)C[C@@H](C)C(=O)[C@H](C)[C@@H](O)[C@]1(C)O` [Clarithromycin], the “Mice Surviving/Total” value ([3]; 1.04 mg/kg/day P.O., 3 day regimen) was 0/10, the “Mice Surviving/Total” value [3, 8] was 0/10 and the “Mice Surviving/Total” value [3, 9] was 0/10. For the same molecule, the “Mice Surviving/Total” value ([3]; 4.2 mg/kg/day P.O., 3 day regimen) was 0/10, the “Mice Surviving/Total” value [3, 10] was 0/10 and the “Mice Surviving/Total” value ([3]; 16.7 mg/kg/day P.O., 3 day regimen) was 0/10. For the same molecule, the “Mice Surviving/Total” value [3, 11] was 0/10, the “Mice Surviving/Total” value [3, 12] was 1/10 and the “Mice Surviving/Total” value ([3]; 66.7 mg/kg/day P.O., 3 day regimen) was 2/10. For the same molecule, the “Mice Surviving/Total” value ([3]; 100.0 mg/kg/day P.O., 2 day regimen) was 1/10, the “Mice Surviving/Total” value ([3]; 200.0 mg/kg/day P.O., 1 day regimen) was 4/10 and the “Oral PD50” value ([3]; Dosing Regimen 1 day) was greater than 200 mg/kg/day. For the same molecule, the “Oral PD50” value ([3]; Dosing Regimen 2 days) was greater than 200 mg/kg/day, the “Oral PD50” value ([3]; Dosing Regimen 3 days) was greater than 200 mg/kg/day and the “Mice Surviving/Total” value ([3]; […] P.O., 1 day regimen) was 1/10. For the same molecule, the PD50s ([3]; all three q.d. regimens (1, 2, 3 days)) was greater than 200 mg/kg, the “ED50 One-Day Therapy” value [3, 13] was 270 mg/kg/therapy and the “ED50 Three-Day Therapy” value [3, 13] was 338 mg/kg/therapy. The “ED50 Two-Day Therapy” value [3, 13] was 327 mg/kg/therapy, the PD50s ([3]; previous data, BID administration over two days of therapy) was 5 to 25 mg/kg and the “ED50 One-Day Therapy” value [4] was 99.8 mg/kg/therapy. For the same molecule, the “ED50 Three-Day Therapy” value [4] was 87.5 mg/kg/therapy, the “ED50 Two-Day Therapy” value [4] was 103.0 mg/kg/therapy and the “Mice Surviving/Total” value ([5]; 3.12 mg/kg/day) was 0/10. The “Mice Surviving/Total” value ([5]; 50 mg/kg/day) was 2/10, the “Mice Surviving/Total” value ([5]; 200 mg/kg/day) was 0/10 and the “Oral PD50” value ([5]; Dosing Regimen 1 day) was greater than 200 mg/kg/day. For the same molecule, the “Mice Surviving/Total” value ([5]; […]) was 0/10, the PD50 ([5]; one therapeutic dose (one day regimen), s.c.) was greater than 200 mg/kg and the “ED50 One-Day Therapy” value [5, 14] was greater than 200 mg/kg/therapy. The “ED50 Three-Day Therapy” value [5, 14] was greater than 200 mg/kg/therapy, the “ED50 Two-Day Therapy” value [5, 14] was greater than 200 mg/kg/therapy and the MIC (S. pyogenes 02C0203) was “MIC 0.01-0.03 μg/ml”. For the same molecule, the “ED50 One-Day Therapy” value [6] was greater than 200 mg/kg/therapy, the “ED50 Three-Day Therapy” value [6] was greater than 200 mg/kg/therapy and the “ED50 Two-Day Therapy” value [6] was greater than 200 mg/kg/therapy. For the same molecule, the “Mice Surviving/Total” value ([7]; 0.20 mg/kg/day P.O., 3 day regimen) was 0/10, the “Mice Surviving/Total” value ([7]; 0.39 mg/kg/day P.O., 2 day regimen) was 0/10 and the “Mice Surviving/Total” value ([7]; 0.78 mg/kg/day P.O., 1 day regimen) was 0/10. The “Mice Surviving/Total” value ([7]; 0.78 mg/kg/day P.O., 3 day regimen) was 5/10, the “Mice Surviving/Total” value [7, 8] was 8/10 and the “Mice Surviving/Total” value [7, 9] was 4/10. For the same molecule, the “Mice Surviving/Total” value ([7]; 3.12 mg/kg/day P.O., 3 day regimen) was 9/10, the “Mice Surviving/Total” value [7, 10] was 9/10 and the “Mice Surviving/Total” value [7, 11] was 8/10. The “Mice Surviving/Total” value [7, 12] was 10/10, the “Oral PD50” value ([7]; Dosing Regimen 1 day) was 11.3 (3.1–19.4) mg/kg/day and the “Oral PD50” value ([7]; Dosing Regimen 2 days) was 2.2 (0.9–3.6) mg/kg/day. The “Oral PD50” value ([7]; Dosing Regimen 3 days) was 3.1 (2.6–3.7) mg/kg/day, the “Mice Surviving/Total” value ([7]; […] P.O., 1 day regimen) was 6/10 and the “Mice Surviving/Total” value ([7]; […] P.O., 3 day regimen) was 10/10. For the same molecule, the “ED50 One-Day Therapy” value [7, 14] was 11.7^1 mg/kg/therapy, the “ED50 Three-Day Therapy” value [7, 14] was 3.8 mg/kg/therapy and the “ED50 Two-Day Therapy” value [7, 14] was 2.5 mg/kg/therapy. It also gave an MIC (H. influenzae 54A1100; listed as Clanthromycin) of 8 mg/L (≈ 10.7 µM) and an MIC (H. influenzae 54A1100; Haemophilus influenzae, read-out: MIC) of 8 mg/L (≈ 10.7 µM).

With `CCC[C@@H]1C[C@@H](C(=O)N[C@@H]([C@H]2O[C@H](SC)[C@H](O)[C@@H](O)[C@H]2O)[C@H](C)Cl)N(C)C1` [clindamycin] the “clindamycin MIC” value (S. pneumoniae isolates; S. pneumoniae strains with erm(B)) was 128 mg/L, the MIC (S. pneumoniae isolates; read-out: clindamycin MIC, S. pneumoniae strains confirmed as mef(A)) was less than 0.06 mg/L and the MIC (S. pneumoniae isolates; read-out: clindamycin MIC, S. pneumoniae strains with erm(B)) was greater than 128 mg/L.

— patent US6987093B2 (priority 2001, dated 2006)
